The record followed here is publication PMC11899342, “Novel Triazeneindole Antibiotics: Synthesis and Hit-to-Lead Optimization” (International Journal of Molecular Sciences, 2025).

Format in all cases: in vitro ADME
A short description of data set [1]: Stability in artificial gastric juice. Conditions: pH 1.2, pepsin, 37 °C, read-out: t1/2 in artificial gastric juice. On the procedure:
During ADME studies, the concentration of the compounds was analyzed using ultra-performance liquid chromatography (UPLC) coupled with tandem mass spectrometry (MS/MS) in the multiple reaction monitoring (MRM) mode. A quantitative analysis was performed using the internal standard (IS) calibration method, with tolbutamide as the IS.
The analyses were carried out on a system composed of an Agilent 1290 Infinity UPLC system (Agilent Technologies, USA) connected by ESI interface to a tandem quadrupole mass spectrometer QTRAP 6500 (AB Sciex Corp, Framingham, MA, USA). The separation was conducted on an YMC Triart C18 50 × 2 mm, 1.9 μm column, which was kept at 35 °C. The samples were cooled to 8 °C in an autosampler, and aliquots of 1 µL were delivered onto the column. Elution was performed using gradients of A (0.1% formic acid in water) and B (0.1% formic acid in acetonitrile), at the flow rate 0.35 mL/min. […] The declustering potential was 31 V for BX and 93 V for IS, resepectively; the collision energy was attuned to 17 eV; the collision cell exit potential was 10 V for BX and 8 V for IS MRM, respectively; the analyses were recorded for 305 → 234 (BX) and 271 → 172 (tolbutamide). […]

Data set [2] is described as follows: Stability in human liver microsomes. As for the experimental part: (§1) The liver metabolism of the substance was studied in the microsomal fractions of human and rat livers (XenoTech HMMCPL, RTMCPL, Kansas City, KS, USA) in the presence of the cofactor of the oxidative enzymes NADPH (AppliChem, Darmstadt, Germany).
(§2) The plate was incubated in a thermal shaker for 10 min at 400 rpm and 37 °C; then, 2.4 µL of 100× stocks of the tested substance was added into each well. A total of 30 µL of 8× cofactor solution was added to each experimental well (two replicates), 30 µL of deionized water was added to one control well, and all wells were mixed three times using a multichannel pipette with a volume of 100 µL. After mixing, the plate was placed in a thermal shaker at 400 rpm and 37 °C. The reactions were terminated at the following time points—0, 5, 10, 15, 20, and 30 min—by transferring 30 µL of the reaction mixture from the corresponding well to 1.1 mL microtubes and adding 180 µL of acetonitrile with internal standard 200 ng/mL tolbutamide (Fluka, Switzerland). To evaluate the stability of the substance in the microsomes without the cofactor, two aliquots were taken from the control well, and the reactions were terminated at 0 and 30 min time points. […] Then, the samples were centrifuged for 10 min at 1500× g, and 150 μL of the supernatant was taken for UPLC–MS/MS analysis.

Data set [3] in a line: Stability in human plasma. Conditions: 37 °C, 1 μM. As for the experimental part: (§3) For the experiment, human and rat plasma (SD) was thawed at room temperature and centrifuged for 5 min at 1500× g. Eucatropine (Sigma-Aldrich, USA), which is unstable in human and rat plasma, was used as a control compound.
(§4) For stability evaluation, 3 μL of 100X solutions of the tested or control compound (0.1 mM) was added to 297 μL of the corresponding plasma (prewarmed to 37 °C) to a final concentration of 1 μM. The plasma samples were incubated with the test and control compounds in the 0.65 mL microtubes at 37 °C and under 300 rpm rotation. After 15, 30, 60, and 240 min, 30 μL aliquots were taken into 1.1 mL microtubes with 180 μL of chilled acetonitrile with an internal standard of 200 ng/mL tolbutamide (Fluka). The tubes were stirred and kept at 4 °C for 15 min, then centrifuged at 1500× g for 10 min. A total of 200 μL of the supernatants was transferred into microtubes and stored at −70 °C until UPLC–MS/MS analysis.

The nature of data set [4]: Stability in rat liver microsomes. As to conditions: NADPH. On the procedure:
as §1, §2
A general note: Microsomes from liver hold many membrane-bound enzymes, among them those of drug oxidation.

Another data set can be described thus: Stability in rat plasma. Conditions: 37 °C, 1 μM. As for the experimental part:
as §3, §4

Structures are written as SMILES.

One may read the microsomal CLint as the capacity of the preparation to metabolise the compound, expressed as a volume cleared per time. A higher microsomal CLint goes with faster metabolism.

On to `CCOC(=O)c1[nH]c2cc(F)ccc2c1/N=N/N1CCCC1` [BX-SI043, Ethyl (E)-6-fluoro-3-(pyrrolidin-1-yldiazenyl)-1H-indole-2-carboxylate], for which the half-life at 1 µM in data set [1] was < 10 min. For the same compound, the “Remaining after 30 min” value in data set [2] (NADPH) and in data set [4] (rat liver microsomes) was 0.00% each time. Also, the half-life turned out to be 2.73 min in data set [2] (pH 7.4, NADPH) and 1.4 min in data set [4] (rat, liver microsomes, pH 7.4, rat liver microsomes). For the same compound, the microsomal CLint in data set [2] (pH 7.4, NADPH) was determined as 1020 µL/min/mg; in data set [4] (pH 7.4, rat liver microsomes) it was 2140 µL/min/mg. Besides, the “metabolized in human plasma after 1 h” value in data set [3] (1 h) is “about 50%”. Moreover, the “metabolized in human plasma after 4 h” value in data set [3] (4 h) is 97%. The compound also had a t1/2 in data set [4] (rat liver microsomes, listed as ВХSI043) of 1.30 min. The “remaining in rat plasma after 15 min” value in the data set “Stability in rat plasma” stood at 1.7%.
